The subject of data set [1] is P. falciparum chloroquine-sensitive 3D7 strain. The experiment in a line: Antiplasmodial assay, microdilution in vitro, flow cytometry. It is filed as cell-based, Plasmodium falciparum. The note with it: for Antiplasmodial activity grade in words: P. falciparum 3D7; for IC50: Plasmodium falciparum. As to the method: The strains were maintained in human erythrocytes in a gas mixture containing 5% O2, 5% CO2 and 90% N2 [24]. The culture was synchronised by 10% sorbitol treatment. The antimalarial activity was measured using the microdilution technique in vitro. […] Samples were dissolved in water, dimethylsulfoxide (DMSO) or methanol and serially diluted with the culture medium. To evaluate parasitemia, Giemsa staining and flow cytometric analysis were used. The concentration of the drug required to inhibit parasite growth was determined by comparing the fluorescence incorporated into the treated and untreated cultures (control). The concentration causing 50% inhibition (IC50) was determined from the drug concentration response curve.

A short description of data set [2]: Cytotoxicity assay, dihydroethidium staining, flow cytometry. Format: cell-based, human. Conditions: human. Here is the method: (§1) Human embryonic kidney (HEK293T) cells were cultured in surface area 75 cm^2 (Greiner Bio-One, Frickenhausen, Germany) vented tissue culture flasks at 37 °C in a humidified atmosphere containing 5% CO2 in Dulbecco’s modified essential medium (Gibco/Life Technologies, Grand Island, NY, USA) supplemented with 10% (v/v) foetal bovine serum, 100 U/mL penicillin and 100 µg/mL streptomycin. After 24 h, 50 µl of each drug was added with 0.5% DMSO or methanol to a single well. The cells were incubated with the test drugs for an additional 24 and 48 h and then harvested with trypsin, gently pelleted by centrifugation and re-suspended in PBS. The cells were stained with dihydroethidium solution (10 mg/mL in phosphate buffered saline), gently vortexed and incubated for 40 min at 37 °C in the dark. Ten thousand gated events were acquired for each sample (FACSCalibur BD and CellQuest software was used for analysis).
Background: In flow cytometry, cells or beads pass a laser one at a time.

The test system of a further data set is HEK293T cells. The description is as above. It is filed as cell-based, human. Conditions: for Selectivity Index (SI) 48 h: HEK293T IC50 versus P. falciparum 3D7 IC50, 48 h; for IC50: Homo sapiens, HEK-293T; for IC50 / Cytotoxicity judgement in words: HEK293T; for Cytotoxicity judgement in words: tested concentrations 0.001-100 µM. Here is the method:
as §1

The test system of another data set is Plasmodium 3D7 strain. Details: method as in PMID 14697777. Conditions: 3D7 strain ref 7; read-out: IC50 anti-Plasmodium 3D7 strain; cited from earlier work.
In the next data set the test system is P. berghei. Details: method as in PMID 10190183. Conditions: 250 mg/kg/day ref 6; cited from earlier work.
Data set [3] has as its system P. falciparum (3D7) isolated parasites. Put plainly: Cytosolic calcium in isolated parasites loaded with Fluo4/AM (spectrofluorimetry). The note with it: 2c 100 µM. Format: cell-based, Plasmodium falciparum. As to the method:
Erythrocytes (RBCs) infected by P. falciparum (3D7) at the trophozoite stage were lysed with 10 mg/mL saponin (in phosphate-buffered saline) in the presence of 20 µg/mL protease inhibitors (pepstatin A, leupeptin, antipain and chymostatin) and benzamidine (0.5 mmol/L). Erythrocyte membranes were then removed through centrifugation (8700 rpm for 10 min at 4 °C). The parasites were washed three times in buffer M (116 mM NaCl, 5.4 mM KCl, 0.8 mM MgSO4, 5.5 mM D-glucose, 50 mM MOPS, pH 7.3) with CaCl2 (2 mM). The parasites were then re-suspended in the same buffer with Fluo4-AM (5 μM) probenecid (1.8 mM), an inhibitor of organic anion transport (to prevent dye sequestration and release), […] protease inhibitors (pepstatin A, leupeptin, antipain and chymostatin) and benzamidine (0.5 mmol/L) for 50 min at 37 °C. The parasite suspension was then washed three times with buffer M. Spectrofluorimetric measurements were performed in a Shimadzu RF-5301 PC instrument at 37 °C with isolated P. falciparum (3D7) parasites (10^8 cells mL^−1) incubated with MOPS buffer in a 1 mL cuvette. Compound 2c (100 μM) and THG (10 μM) were added during time course experiments, and excitation/emission wavelengths were adjusted to 505/530 nm for Fluo4-AM. Methanol (0.05%) was used as a control. […]

Data set [4] concerns P. falciparum chloroquine-sensitive Thai strain. Details: method as in PMID 17967541. Conditions: chloroquine-sensitive Thai strain ref 10; cited from earlier work.
[5] abbreviates: chloroquine-sensitive 3D7 strain, 48 h incubation, n = 3, read-out: IC50 (µM) P. falciparum 3D7.
[6] abbreviates: chloroquine-sensitive 3D7 strain, 48 h incubation, values in nM, read-out: IC50 P. falciparum 3D7.
[7] abbreviates: 24 h, read-out: IC50 (µM) HEK293T 24 h.
[8] abbreviates: 48 h, read-out: IC50 (µM) HEK293T 48 h.

“Also recorded” adds a separate entry of the source. Like-named read-outs stand apart in the source and are kept apart here. Some results are limits rather than exact numbers.

One may read the IC50 as the concentration at which inhibition is half-maximal. One may read the melting point as the temperature, or range, at which the solid turns liquid.

On to `C[C@H]1[C@H](C)CC[C@]2(C(=O)O)CC[C@]3(C)C(=CC[C@@H]4[C@@]5(C)CC[C@H](O)C(C)(C)[C@@H]5CC[C@]43C)[C@H]12` [compound 2, Ursolic acid], for which the “Antiplasmodial activity grade in words” value in data set [1] is “inactive”. Besides, in data set [1] (setting [5]), the IC50 came out at 36 µM.

As for `C=C(C)[C@@H]1CC[C@]2(C(=O)NCCCN3CCN(CCCN)CC3)CC[C@]3(C)C(CCC4[C@@]5(C)CC[C@H](OC(C)=O)C(C)(C)C5CC[C@]43C)C12` (some centres unmarked) [1c, N-{3-[4-(3-aminopropyl)piperazinyl]propyl}-3-acetylbetulinamide], the melting point is 120 °C. Also, the “Antiplasmodial activity grade in words” value in data set [1] was “excellent activity”. Moreover, the IC50 in data set [1] (setting [5]) worked out at 0.22 µM. Besides, the IC50 in data set [1] (setting [6]) fell in the range of 0.175 to 0.22 µM. In data set [2], this compound yielded a half-inhibitory concentration (IC50) of 4 µM. Also, the “Selectivity Index (SI) 48 h” value in the data set with HEK293T cells is listed as 18. The half-maximal inhibitory concentration (IC50) with HEK293T cells (setting [7]) was 4 µM. For the same compound, the IC50 in the data set with HEK293T cells (setting [8]) was determined as 4 µM.

Regarding `C=C(C)[C@@H]1CC[C@]2(C(=O)O)CC[C@]3(C)[C@H](CC[C@@H]4[C@@]5(C)CC[C@H](OC(C)=O)C(C)(C)[C@@H]5CC[C@]43C)[C@@H]12` [1a, 3-O-Acetylbetulinic acid], the “Antiplasmodial activity grade in words” value in data set [1] is “good activity”. Also, the IC50 in data set [1] (setting [5]) is 4 µM; with HEK293T cells (setting [7]), greater than 100 µM; in the data set on HEK293T cells (setting [8]), greater than 100 µM. Also, the “Cytotoxicity judgement in words” value with HEK293T cells is reported as “not toxic; also recorded: not cytotoxic at the tested concentrations”.

Turning to `C=C(C)[C@@H]1CC[C@]2(C(=O)O)CC[C@]3(C)[C@H](CC[C@@H]4[C@@]5(C)CC[C@H](O)C(C)(C)[C@@H]5CC[C@]43C)[C@@H]12` [compound 1, Betulinic acid], the “Antiplasmodial activity grade in words” value in data set [1] is reported as “moderate activity”. Besides, the IC50 in data set [1] (setting [5]) was 18 µM; with Plasmodium 3D7 strain, 13.9 µM. Besides, the “Efficacy in murine malarial model of P. berghei” value with P. berghei was “ineffective”.

Take `CCN(CC)CCCC(C)Nc1ccnc2cc(Cl)ccc12` (centres unmarked) [chloroquine, reference compound]: the IC50 in data set [1] (3D7, 48 h, read-out: IC50 P. falciparum 3D7) was 0.029 µM.

Turning to `CC(=O)O[C@H]1CC[C@@]2(C)C(CC[C@]3(C)C2CC=C2C4[C@@H](C)[C@H](C)CC[C@]4(C(=O)O)CC[C@]23C)C1(C)C` (some centres unmarked) [2a], the half-inhibitory concentration (IC50) in data set [1] (setting [5]) was 14 µM.

With `CC(=O)O[C@H]1CC[C@@]2(C)C(CC[C@]3(C)C2CC=C2C4[C@@H](C)[C@H](C)CC[C@]4(C(=O)NCCCN4CCN(CCCNC(=O)OC(C)(C)C)CC4)CC[C@]23C)C1(C)C` (some centres unmarked) [2b], in data set [1] (setting [5]), the IC50 was 15 µM.

Consider `C=C(C)[C@@H]1CC[C@]2(C(=O)NCCCN3CCN(CCCNC(=O)OC(C)(C)C)CC3)CC[C@]3(C)C(CCC4[C@@]5(C)CC[C@H](OC(C)=O)C(C)(C)C5CC[C@]43C)C12` (some centres unmarked) [1b, N-{3-[4-(3-Aminopropyl)piperazinopropyl]terbutylcarbamate}-3-acetylbetulinamide], for which the melting point worked out at 129 °C. In addition, the “Antiplasmodial activity grade in words” value in data set [1] is “good activity”. The IC50 in data set [1] (setting [5]) is 5 µM. Further, in data set [2], the IC50 stood at 4 µM. Further, the “Selectivity Index (SI) 48 h” value with HEK293T cells is reported as 0.8. Moreover, the half-inhibitory concentration (IC50) in the data set with HEK293T cells (setting [7]) was determined as 4 µM. In addition, in the data set with HEK293T cells (setting [8]), the IC50 came to 4 µM.

Turning to `CC(=O)OC1CCC2(C)C(CCC3(C)C2CC=C2C4C(C)C(C)CCC4(C(=O)NCCCN4CCN(CCCN)CC4)CCC23C)C1(C)C` (centres unmarked) [2c], the “Antiplasmodial activity grade in words” value in data set [1] was “excellent activity”. Also, the IC50 in data set [1] (setting [5]) was 0.175 µM; in data set [1] (setting [6]) it was 0.175 to 0.22 µM; in data set [2] (HEK293T cells, HEK293T, time not stated, read-out: IC50 cytotoxicity HEK293T), 4 µM; in the data set with HEK293T cells (setting [7]), 4 µM; with HEK293T cells (setting [8]), 4 µM; in data set [4] it was 0.167 µM. The “Selectivity Index (SI) 48 h” value with HEK293T cells was 23. For the same compound, the “Cytotoxicity judgement in words” value in the data set on HEK293T cells is listed as “non-toxic”. In addition, the “Effect on parasite calcium homeostasis, in words” value in data set [3] (followed by THG 10 µM) is recorded as “can modulate parasite calcium homeostasis; also recorded: led to an increase in intracellular ion concentrations in P. falciparum”. The “Ca2+ concentration, Fluo4/AM fluorescence after addition of compound” value in data set [3] (isolated parasites 10^8 cells mL-1, mean ± SEM, n = 9, P = 0.0004 vs methanol 0.05%) amounted to 104.9 a.u.

Take `C=C(C)[C@@H]1CC[C@]2(C(=O)OC)CC[C@]3(C)[C@H](CC[C@@H]4[C@@]5(C)CC[C@H](O)C(C)(C)[C@@H]5CC[C@]43C)[C@@H]12` [methyl betulinate, reference compound]: the IC50 with Plasmodium 3D7 strain was 7 µM.

The values above are taken from article PMC6268073, “Synthesis and Antiplasmodial Activity of Betulinic Acid and Ursolic Acid Analogues” (Molecules, 2012).
